From US11180462B2, “Microbiocidal oxadiazole derivatives” (SYNGENTA PARTICIPATIONS AG, priority 2015, dated 2021)

What was measured:
[1] = test system: Puccinia recondita f. Sp. Tritici; assay: Fungicidal activity against Puccinia recondita f. sp. tritici / wheat / leaf disc curative (brown rust); assay type: in vivo; conditions: foliar, 24 h, 200 ppm in the applied formulation, wheat leaf segments, curative (applied 1 day after inoculation), compared to untreated control leaf disks, read-out: disease control
In short: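 Curative test on wheat leaf segments (cv. Kanzler) on agar, inoculated with spore suspension and held dark at 19° C, 75% RH; formulated compound in water applied 1 day after inoculation. Incubated at 19° C, 75% RH, 12 h light/12 h dark; percent disease control versus untreated scored 6 to 8 days after application.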

Phakopsora Pachyrhizi = assay: Fungicidal activity against Phakopsora pachyrhizi / soybean / leaf disc preventative (Asian soybean rust); assay type: in vivo; conditions: foliar, 200 ppm in the applied formulation, soybean leaf disks, compared to untreated control leaf disks, read-out: disease control
In short: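 Preventative soybean leaf-disc test: discs on water agar sprayed with diluted formulated compound, inoculated one day later with spores on the lower surface. Held 24–36 h dark at 20°C, 75% rh, then 12 h light/day; percent disease control versus untreated discs scored 12–14 days after application.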

[2] = test system: Glomerella lagenarium (Colletotrichum lagenarium); assay: Fungicidal activity against Glomerella lagenarium (Colletotrichum lagenarium) liquid culture / cucumber / preventative (anthracnose); assay type: cell-based; conditions: Colletotrichum orbiculare; 20 ppm in the applied formulation; liquid culture (PDB), growth inhibition measured photometrically after 3 to 4 days; compared to untreated control; read-out: disease control
In short: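 Photometric read-out of fungal growth after 2–7 days, expressed as percent antifungal activity versus untreated check. Cryo-stored conidia in PDB; compound at 20 ppm; dark, 24 °C, 96% RH.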

[3] = test system: Puccinia recondita f. Sp. Tritici; assay: Fungicidal activity against Puccinia recondita f. sp. tritici / wheat / leaf disc preventative (brown rust); assay type: in vivo; conditions: foliar, 200 ppm in the applied formulation, wheat leaf segments, preventative, compared to untreated control leaf disks, read-out: disease control
In short: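 Preventative leaf-segment test, wheat cv. Kanzler on water agar. Spray compound at 200 ppm, inoculate with spores 1 day later; 19° C., 75% rh, 12/12 h light. Read-out: % disease control vs untreated, 7 to 9 days after application.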

Row | SMILES | pest or weed control at 200 ppm [1] [%] | pest or weed control at 200 ppm (Phakopsora Pachyrhizi) [%] | inhibition of growth at 20 ppm [2] [%] | pest or weed control at 200 ppm [3] [%]
1 | CON(Cc1ccc(-c2noc(C(F)(F)F)n2)cc1)C(=O)C1C(C)(C)C1(C)C [Compound 1.14, N-methoxy-2,2,3,3-tetramethyl-N-[[4-[5-(trifluoromethyl)-1,2,4-oxadiazol-3-yl]phenyl]methyl]-cyclopropane-carboxamide] | ≥ 80 | ≥ 80 | – | –
2 | COC(=O)N(Cc1ccc(-c2noc(C(F)(F)F)n2)cc1)OC [Compound 2.3, methyl N-methoxy-N-[[4-[5-(trifluoromethyl)-1,2,4-oxadiazol-3-yl]phenyl]methyl]carbamate] | ≥ 80 | ≥ 80 | ≥ 80 | –
3 | CCC(=O)N(Cc1ccc(-c2noc(C(F)(F)F)n2)cc1F)OC [Compound 1.568, N-[[2-fluoro-4-[5-(trifluoromethyl)-1,2,4-oxadiazol-3-yl]phenyl]methyl]-N-methoxy-propanamide] | ≥ 80 | ≥ 80 | ≥ 80 | –
4 | COCCOC(=O)N(Cc1ccc(-c2noc(C(F)(F)F)n2)cc1)OC [Compound 2.2, 2-methoxyethyl N-methoxy-N-[[4-[5-(trifluoromethyl)-1,2,4-oxadiazol-3-yl]phenyl]methyl]-carbamate] | ≥ 80 | ≥ 80 | ≥ 80 | –
5 | O=C(C1CC1(F)F)N(Cc1ccc(-c2noc(C(F)(F)F)n2)cc1)CC1CC1 (stereo not shown) [Compound 1.207, N-(cyclopropylmethyl)-2,2-difluoroN-[[4-[5-(trifluoromethyl)-1,2,4-oxadiazol-3-yl]phenyl]methyl]-cyclopropane-carboxamide] | ≥ 80 | ≥ 80 | ≥ 80 | –
6 | C#CCN(Cc1ccc(-c2noc(C(F)(F)F)n2)cc1)C(=O)Cc1ccc(C#N)cc1 [Compound 1.193, 2-(4-cyanophenyl)-N-prop-2-ynyl-N-[[4-[5-(trifluoromethyl)-1,2,4-oxadiazol-3-yl]phenyl]methyl]-acetamide] | – | ≥ 80 | ≥ 80 | ≥ 80
7 | COC(C)C(=O)N(Cc1ccc(-c2noc(C(F)(F)F)n2)cc1)C1COC1 (stereo not shown) [Compound 1.750, 2-methoxy-N-(oxetan-3-yl)-N-[[4-[5-(trifluoromethyl)-1,2,4-oxadiazol-3-yl]phenyl]methyl]-propanamide] | ≥ 80 | ≥ 80 | – | –
8 | O=C(C1CC1F)N(Cc1ccc(-c2noc(C(F)(F)F)n2)cc1)Cc1ccco1 (stereo not shown) [Compound 1.471, 2-fluoro-N-(2-furylmethyl)-N-[[4-(5-(trifluoromethyl)-1,2,4-oxadiazol-3-yl]phenyl]methyl]-cyclopropane-carboxamide] | – | ≥ 80 | ≥ 80 | ≥ 80
9 | CCON(Cc1ccc(-c2noc(C(F)(F)F)n2)cc1)C(=O)CC#N [Compound 1.627, 2-cyano-N-ethoxy-N-[[4-[5-(trifluoromethyl)-1,2,4-oxadiazol-3-yl)phenyl]methyl]-acetamide] | – | ≥ 80 | ≥ 80 | ≥ 80
10 | CCC(C)(CC)C(=O)N(Cc1ccc(-c2noc(C(F)(F)F)n2)cc1)C1CC1 [Compound 1.135, N-cyclopropyl-2-ethyl-2-methyl-N-[[4-[5-(trifluoromethyl)-1,2,4-oxadiazol-3-yl]phenyl]methyl]-butanamide] | – | ≥ 80 | ≥ 80 | ≥ 80
11 | CON(C(=O)C1(C#N)CC1)C(C)c1ccc(-c2noc(C(F)(F)F)n2)cc1 (stereo not shown) [Compound 1.274, 1-cyano-N-methoxy-N-[1-[4-[5-(trifluoromethyl)-1,2,4-oxadiazol-3-yl]phenyl]ethyl]-cyclopropane-carboxamide] | – | ≥ 80 | ≥ 80 | ≥ 80
12 | CCON(Cc1ccc(-c2noc(C(F)(F)F)n2)cc1)C(=O)CC [Compound 1.562, N-ethoxy-N-[[4-[5-(trifiuoromethyl)-1,2,4-oxadiazol-3-yl]phenyl]methyl]-propanamide] | – | ≥ 80 | ≥ 80 | ≥ 80
13 | CCC(C)C(=O)N(CCO)Cc1ccc(-c2noc(C(F)(F)F)n2)cc1 (stereo not shown) [Compound 1.720, N-(2-hydroxyethyl)-2-methyl-N-[[4-[5-(trifluoromethyl)-1,2,4-oxadiazol-3-yl]phenyl]methyl]-butanamide] | – | ≥ 80 | ≥ 80 | ≥ 80
14 | O=C(CC1CC1)N(CCO)Cc1ccc(-c2noc(C(F)(F)F)n2)cc1 [Compound 1.736, 2-cyclopropyl-N-(2-hydroxyethyl)-N-[[4-[5-(trifIuoromethyl)-1,2,4-oxadiazol-3-yl]phenyl]methyl]-acetamide] | – | ≥ 80 | ≥ 80 | ≥ 80
15 | O=C(CC1CC1)N(Cc1ccc(-c2noc(C(F)(F)F)n2)cc1)CC1CCCO1 (stereo not shown) [Compound 1.418, 2-cyclopropyl-N-(tetrahydrofuran-2-ylmethyl)-N-[[4-[5-(trifluoromethyl)-1,2,4-oxadiazol-3-yl]phenyl]methyl]-acetamide] | – | ≥ 80 | ≥ 80 | ≥ 80
16 | COCCN(Cc1ccc(-c2noc(C(F)(F)F)n2)cc1)C(=O)CC(C)(C)C [Compound 1.342, N-(2-methoxyethyl)-3,3-dimethyl-N-[[4-[5-(trifluoromethyl)-1,2,4-oxadiazol-3-yl]phenyl]methyl]-butanamide] | – | ≥ 80 | ≥ 80 | ≥ 80
17 | CON(Cc1ccc(-c2noc(C(F)(F)F)n2)cc1)C(=O)N(C)C#N [Compound 3.62, 1-cyano-3-methoxy-1-methyl-3-[[4-[5-(trifluoromethyl)-1,2,4-oxadiazol-3-yl]phenyl]methyl]urea] | – | ≥ 80 | ≥ 80 | ≥ 80
18 | O=C(CC1CC1)OCCN(Cc1ccc(-c2noc(C(F)(F)F)n2)cc1)C(=O)CC1CC1 [Compound 1.737, 2-[(2-cyclopropylacetyl)-[[4-[5-(trifluoromethyl)-1,2,4-oxadiazol-3-yl]phenyl]methyl]-amino]ethyl 2-cyclopropylacetate] | – | ≥ 80 | ≥ 80 | ≥ 80
19 | O=C(OCCN(Cc1ccc(-c2noc(C(F)(F)F)n2)cc1)C(=O)C1CCC1)C1CCC1 [Compound 1.715, 2-[cyclobulanecarbonyl-[[4-[5-(trifluoromethyl)-1,2,4-oxadiazol-3-yl]phenyl]methyl]-amino]ethyl cyclobutane-carboxylate] | – | ≥ 80 | ≥ 80 | ≥ 80
20 | COCC(=O)OCCN(Cc1ccc(-c2noc(C(F)(F)F)n2)cc1)C(=O)COC [Compound 1.716, 2-[(2-methoxy-acetyl)-[[4-[5-(trifluoromethyl)-1,2,4-oxadiazol-3-yl]phenyl]methyl]-amino]ethyl 2-methoxyacetate] | – | ≥ 80 | ≥ 80 | ≥ 80
